Our source for the Kd values is paper PMC2213614 (The Journal of Cell Biology, 2008).

This assay concerns the target Sec3N (GST-Sec3N, N terminus of Sec3, aa 1-320) (Saccharomyces cerevisiae, UniProt P33332). The class given is binding. The following applies: 25°C.

Sec3N (GST-Sec3N, N terminus of Sec3, aa 1-320), sequence (P33332 1-320 limits assumed): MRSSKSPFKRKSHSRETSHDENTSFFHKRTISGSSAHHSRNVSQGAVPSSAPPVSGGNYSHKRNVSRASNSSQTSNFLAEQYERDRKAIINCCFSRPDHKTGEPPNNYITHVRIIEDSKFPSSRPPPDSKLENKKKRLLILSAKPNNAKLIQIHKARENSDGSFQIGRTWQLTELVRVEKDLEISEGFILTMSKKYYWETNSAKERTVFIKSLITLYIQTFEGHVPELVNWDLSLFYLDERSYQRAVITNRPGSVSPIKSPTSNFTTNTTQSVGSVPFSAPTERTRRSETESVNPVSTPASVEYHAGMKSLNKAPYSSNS

In general, Kd refers to the free concentration of one partner at which half of the binding sites on the other are occupied at equilibrium, for simple one-to-one binding. Low readings indicate higher affinity, high ones lower affinity. For the substance phosphatidylinositol 4,5-bisphosphate, the Kd was 14.4 ± 4 µM.
